How the values were obtained:
[1] = system: follicle stimulating hormone (FSH); experiment: Mean serum concentration of FSH in crossover study of OC plus cilansetron or placebo; format: in vivo, human; details: FIG. 4
Procedure: (§1) A double-blind, balanced, randomized, two-period, placebo-controlled, crossover study in 20 healthy female subjects (1845 years of age, and who had received Ortho Tri-Cyclen® oral contraceptive (“OC”) for three or more months immediately preceding the start of the study) of cilansetron administration was conducted. All subjects were to have their OC cycles synchronized so that on study Day 1, they received the first dose of their OC for that cycle. All subjects were to continue to receive daily administrations of OC through each of the two consecutive 28-day study periods. […] Safety was measured by monitoring adverse events, physical examination, clinical laboratory and pulmonary function tests, vital signs, 12 lead ECG, and telemetry.
(§2) In efforts to determine the effects (if any) of cilansetron 2 mg administration TID for 7 days on the pharmacodynamics of progesterone (P), luteinizing hormone (LH) and follicle stimulating hormone (FSH), the mean serum concentrations of these hormones was determined across the entire time-course of treatment, as set forth in Tables 6-8 and FIGS. 4-6. […]
(§3) Measurable serum concentrations of […], LH and P were available for 17 out of the 20 subjects, as determined using a validated ADVIA Centaur assay. […]

[2] = system: progesterone (P); experiment: Mean serum concentration of progesterone (P) in crossover study of OC plus cilansetron or placebo; format: in vivo, human; details: FIG. 6
Procedure: as §1, §2, §3

[3] = parameters: species or system human; details: in vivo
Procedure: A double-blind, balanced, randomized, two-period, placebo-controlled, crossover study in 20 healthy female subjects (1845 years of age, and who had received Ortho Tri-Cyclen® oral contraceptive (“OC”) for three or more months immediately preceding the start of the study) of cilansetron administration was conducted. All subjects were to have their OC cycles synchronized so that on study Day 1, they received the first dose of their OC for that cycle. All subjects were to continue to receive daily administrations of OC through each of the two consecutive 28-day study periods. […] In addition, during the first 28 days of the study (“the first period”), half of the subjects were administered 2 mg doses of cilansetron three times daily (TID) for 7 days (i.e., study days 14-21), while the other half of the subjects received equivalent doses of a placebo TID. On the first day of the “second period” of the 56-day study (i.e., day 29), the two groups were crossed over for the administration of the reverse treatment (i.e., those subjects who had been administered cilansetron 2 mg TID in the first period were to receive equivalent placebo administrations, and vice versa) for 7 days (i.e., study days 4249). Thereby, all subjects received both cilansetron and placebo treatments and, therefore, served as their own control. Safety was measured by monitoring adverse events, physical examination, clinical laboratory and pulmonary function tests, vital signs, 12 lead ECG, and telemetry. […]
The mean plasma concentration-time profile for EE was determined for both treatment groups in each of the two study periods, and are set forth in Table 1 (the contents of which are graphically illustrated in FIG. 1). The mean plasma concentration-time profile for NGM was determined for both treatment groups in each of the two study periods, and are set forth in Table 2. The mean plasma concentration-time profile for 17-d-NGM was determined for both treatment groups in each of the two study periods, and are set forth in Table 3 (the contents of which are graphically illustrated in FIG. 2). […]

[4] = system: luteinizing hormone (LH); experiment: Mean serum concentration of LH in crossover study of OC plus cilansetron or placebo; format: in vivo, human; details: FIG. 5
Procedure: as §1, §2, §3

[5] = parameters: dose or concentration left out as unconfirmed; details: co-administration with oral contraceptive containing; cited from earlier work

In the case of Cc1nccn1C[C@H]1CCc2c(c3cccc4c3n2CCC4)C1=O [cilansetron, (R)-(−)-4,5,6,8,9,10-hexahydro-10-[(2-methyl-1H-imidazol-1-yl)methyl]-11H-pyrido-[3,2,1-jk]-carbazol-11-one], the “mean serum concentration of FSH compared with OC therapy alone” value [1] is reported as “substantially the same”, the “mean serum concentration of endogenous progesterone (P) compared with OC therapy alone” value [2] is reported as “substantially the same” and the “effect on the pharmacokinetic and pharmacodynamic profiles and parameters associated with normal contraceptive use” value [3] is reported as “substantially no or no effect”. The “mean plasma concentration of 17-d-NGM compared with OC therapy alone” value [3] was “substantially the same”, the “mean plasma concentration of EE compared with OC therapy alone” value [3] was “substantially the same” and the “mean serum concentration of LH compared with OC therapy alone” value [4] was “substantially the same”.

For Cc1[nH]cnc1CN1CCc2c(c3ccccc3n2C)C1=O [alosetron], the “decrease in systemic exposure to the EE component” value [5] is listed as 9% and the “decrease in systemic exposure to the LN component” value [5] is listed as 13%.
